The test system of this assay is Ca^2+ influx in Jurkat T cells. In words: Live cell Ca^2+ imaging (Fura-2) in Jurkat T cells. The assay is classed as cell-based, human. The settings on record: 10 μM CPA, absence of extracellular Ca^2+, Fura-2. The protocol:
Jurkat T cells were loaded with 4 μM Fura-2 AM (Life Technologies) for 60 min at 37 °C. Cells were then washed 3 times and incubated in Hank’s Balanced Salt Solution (HBSS) for 30 min at room temperature before use. Fluorescence at 340 nm and 380 nm excitation wavelengths was recorded on an inverted Nikon Ti-E microscope equipped with 340, 360 and 380 nm excitation filter wheels using NIS-Elements imaging software (Nikon Instruments Inc., Melville, NY, USA). Fura-2 ratios (F340/F380) reflect changes in [Ca^2+]i upon stimulation. Data were obtained from 100 to 250 cells in time-lapse images from each coverslip.
To test this hypothesis we performed live cell Ca^2+ imaging using the Ca^2+ indicator dye Fura-2 to determine the effect of Ktx-Sp2 on [Ca^2+]i in the presence of intracellular Ca^2+ store depletion by cyclopiazonic acid (CPA), an inhibitor of the sarcoplasmic reticulum Ca^2+-ATPase. […] When 2 mM Ca^2+ was added to the Ca^2+-free HBSS, we observed a large Ca^2+ influx into the cells. […] At 10 μM, Ktx-Sp2 decreased the F340/F380 ratio from 0.14 ± 0.02 to 0.05 ± 0.01 (n = 278) (Fig. 5b).

Regarding `CC(=O)C1=C(O)[C@@H]2[C@H]3c4c[nH]c5cccc(c45)C[C@H]3C(C)(C)N2C1=O` [CPA, cyclopiazonic acid, reference compound], the “rise of [Ca^2+]i induced by CPA” value was “relative small, transient rise of [Ca^2+]i”.
